Assay results taken from US8722849B2, “Polypeptides” (Novo Nordisk A/S, priority 2011, dated 2014).
pEC50: −log10 of the molar value. Converted amounts (≈) assume the structure as drawn. Like-named read-outs stand apart in the source and are kept apart here. Starred links: 1 amine or outer side, 2 acyl side, 3 side chain; linkers in the order of their positions; H or OH if unused. Positions of bridges follow the written chain, without caps; N, C: chain ends. Residues, ends and D or L forms follow the SMILES beside them. *: point of attachment. C20 diacid = O=C(O)CCCCCCCCCCCCCCCCCCC(=O)*; γGlu = O=C(O)[C@H](CCC(=O)[*:2])N[*:1]

Experiments:
[1] = molecular target: T1, human calcitonin receptor (Homo sapiens, UniProt P30988); test: Assay (II)a functional CRE-luciferase assay, human calcitonin receptor; format: cell-based; conditions: Table 7; human calcitonin (CTa) receptor
T1 construct: expressed in transfected cells; host or cells: BHK570
T1 sequence (P30988 25-474): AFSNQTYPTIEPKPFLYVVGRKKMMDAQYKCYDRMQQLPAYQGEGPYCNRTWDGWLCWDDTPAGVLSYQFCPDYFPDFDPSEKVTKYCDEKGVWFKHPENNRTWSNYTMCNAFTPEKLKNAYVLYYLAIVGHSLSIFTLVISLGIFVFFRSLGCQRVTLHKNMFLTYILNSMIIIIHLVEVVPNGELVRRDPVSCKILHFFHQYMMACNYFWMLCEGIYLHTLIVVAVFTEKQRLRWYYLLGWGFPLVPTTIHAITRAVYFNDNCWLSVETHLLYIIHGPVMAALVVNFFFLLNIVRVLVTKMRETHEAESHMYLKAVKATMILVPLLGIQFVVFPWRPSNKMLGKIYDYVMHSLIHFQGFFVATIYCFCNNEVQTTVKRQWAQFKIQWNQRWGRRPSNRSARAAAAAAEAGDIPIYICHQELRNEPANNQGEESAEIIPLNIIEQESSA

[2] = Assay (III) ThT fibrillation assay for physical stability; format: physicochemical
Method in brief: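 Freshly prepared formulations, pH-adjusted, with 1 μM ThT; four or eight replicates incubated at 37 °C under 960 rpm orbital shaking. Fluorescence (ex 444/em 485 nm) read every 20 min; […]. Peptide concentration measured by RP-HPLC before and after the run.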

[3] = Assay (IV) determination of solubility; format: physicochemical
Method in brief: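 Eight 100 mM buffers (glycylglycine pH 3.0–5.0, bistrispropane pH 6.0–8.0) each received an equal volume of polypeptide dissolved in water at ~500 nmol/ml. Soluble polypeptide was measured by HPLC following 18 hours at room temperature and centrifugation.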

[4] = molecular target: T2, human amylin receptor (amylin 3(a) receptor: human calcitonin receptor + RAMP-3) (Homo sapiens, UniProt O60896+P30988); test: Assay (II)a functional CRE-luciferase assay, human amylin receptor; format: cell-based; conditions: Table 2; BHK amylin 3(a)-receptor/CRE-luc cells
T2 construct: expressed in transfected cells; host or cells: BHK570
T2 sequence (P30988 25-474): T1 sequence (P30988 25-474)
T2 sequence (O60896 24-148 partner): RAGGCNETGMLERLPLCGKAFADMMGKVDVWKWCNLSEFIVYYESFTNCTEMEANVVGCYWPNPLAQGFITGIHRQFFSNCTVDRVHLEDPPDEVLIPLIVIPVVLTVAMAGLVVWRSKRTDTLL

[5] = bistrispropane buffer, pH 6, pH 6.0, read-out: Solubility pH 6.0
[6] = bistrispropane buffer, pH 6.5, pH 6.5, read-out: Solubility pH 6.5
[7] = bistrispropane buffer, pH 7, pH 7.0, 18 hours at room temperature, Table 3, read-out: Solubility pH 7.0
[8] = bistrispropane buffer, pH 7, pH 7.0, read-out: Solubility pH 7.0
[9] = bistrispropane buffer, pH 7.5, pH 7.5, read-out: Solubility pH 7.5
[10] = bistrispropane buffer, pH 8, pH 8.0, read-out: Solubility pH 8.0
[11] = glycylglycine buffer, pH 3, pH 3.0, read-out: Solubility pH 3.0
[12] = glycylglycine buffer, pH 4, pH 4.0, 18 hours at room temperature, Table 2, read-out: Solubility pH 4.0
[13] = glycylglycine buffer, pH 4, pH 4.0, read-out: Solubility pH 4.0
[14] = glycylglycine buffer, pH 5, pH 5.0, read-out: Solubility pH 5.0

| Structure (SMILES) | pEC50 [1] | ThT pH 4.0 lag time (h) ([2]; ThT fibrillation assay) | solubility at 18 h [3, 5] | solubility at 18 h [3, 6] | solubility at 18 h [3, 7] | solubility at 18 h [3, 8] | solubility at 18 h [3, 9] | solubility at 18 h [3, 10] | solubility at 18 h [3, 11] | solubility at 18 h [3, 12] | solubility at 18 h [3, 13] | solubility at 18 h [3, 14] | pEC50 [4] | ThT pH 4.0 lag time ([2]; Table 8) | ThT pH 4.0 lag time ([2]; Table 9) | ThT pH 4.0 lag time ([2]; ThT fibrillation assay) | solubility at 18 h ([3]; bistrispropane buffer, pH 7, pH 7.0, Table 8, read-out: Solubility pH 7.0) | solubility at 18 h ([3]; bistrispropane buffer, pH 7, pH 7.0, Table 9, read-out: Solubility pH 7.0) | solubility at 18 h ([3]; bistrispropane buffer, pH 7.5, pH 7.5, Table 9, read-out: Solubility pH 7.5) |
| --- | --- | --- | --- | --- | --- | --- | --- | --- | --- | --- | --- | --- | --- | --- | --- | --- | --- | --- | --- |
| CC(C)C[C@H](NC(=O)[C@H](CCCNC(=N)N)NC(=O)[C@H](CCC(N)=O)NC(=O)[C@@H](NC(=O)[C@H](C)NC(=O)[C@@H]1CSSC[C@H](NC(=O)[C@H](CCCCN)NC(=O)CC[C@H](NC(=O)CCCCCCCCCCCCCCCCCCC(=O)O)C(=O)O)C(=O)N[C@@H](CC(N)=O)C(=O)N[C@@H]([C@@H](C)O)C(=O)N[C@@H](C)C(=O)N[C@@H]([C@@H](C)O)C(=O)N1)[C@@H](C)O)C(=O)N[C@@H](C)C(=O)N[C@@H](CCC(=O)O)C(=O)N[C@@H](Cc1ccccc1)C(=O)N[C@@H](CC(C)C)C(=O)N[C@H](C(=O)N[C@@H](CCCNC(=N)N)C(=O)N[C@@H](CO)C(=O)N[C@@H](CO)C(=O)N[C@@H](CCC(N)=O)C(=O)N[C@@H](CC(N)=O)C(=O)N[C@@H](Cc1ccccc1)C(=O)NCC(=O)N[C@@H](C)C(=O)N1CCC[C@H]1C(=O)N[C@@H](CC(C)C)C(=O)N[C@@H](CO)C(=O)N[C@@H](CO)C(=O)N[C@H](C(=O)N[C@@H](CC(N)=O)C(=O)N[C@H](C(=O)NCC(=O)N[C@@H](CO)C(=O)N[C@@H](CC(N)=O)C(=O)N[C@H](C(=O)N1CCC[C@H]1C(N)=O)[C@@H](C)O)C(C)C)[C@@H](C)O)C(C)C [Example 166, N-alpha-[(S)-4-Carboxy-4-(19-carboxynonadecanoylamino)butyryl]-[Glu14,Arg18,Gln21,Ala25,Pro26,Ser28,Ser29,Pro37]-pramlintide] ({C20 diacid-γGlu}-KCNTATCATQRLAEFLVRSSQNFGAPLSSTNVGSNTP-NH2; disulfide 2-7 (inferred); C-terminus assumed) | 10.47 | 1.3 h | > 200 µM | > 200 µM | > 200 µM | > 200 µM | > 200 µM | > 200 µM | > 200 µM | > 200 µM | > 200 µM | > 200 µM | 10.41 | – | – | – | – | – | – |
| CC[C@H](C)[C@H](NC(=O)[C@@H]1CCCN1C(=O)CNC(=O)[C@H](Cc1ccccc1)NC(=O)[C@H](CO)NC(=O)[C@H](CO)NC(=O)[C@H](CO)NC(=O)[C@H](CO)NC(=O)[C@H](CCCNC(=N)N)NC(=O)[C@@H](NC(=O)[C@H](CC(C)C)NC(=O)[C@H](Cc1ccccc1)NC(=O)[C@H](CCC(=O)O)NC(=O)[C@H](C)NC(=O)[C@H](CC(C)C)NC(=O)[C@H](CCCNC(=N)N)NC(=O)[C@H](CCC(N)=O)NC(=O)[C@@H](NC(=O)[C@H](C)NC(=O)[C@@H]1CSSC[C@H](NC(=O)[C@H](CCCCN)NC(=O)CC[C@H](NC(=O)CCCCCCCCCCCCCCCCCCC(=O)O)C(=O)O)C(=O)N[C@@H](CC(N)=O)C(=O)N[C@@H]([C@@H](C)O)C(=O)N[C@@H](C)C(=O)N[C@@H]([C@@H](C)O)C(=O)N1)[C@@H](C)O)C(C)C)C(=O)N[C@@H](CC(C)C)C(=O)N[C@@H](CO)C(=O)N[C@@H](CO)C(=O)N[C@H](C(=O)N[C@@H](CC(=O)O)C(=O)N[C@H](C(=O)NCC(=O)N[C@@H](CO)C(=O)N[C@@H](CC(=O)O)C(=O)N[C@H](C(=O)N1CCC[C@H]1C(N)=O)[C@@H](C)O)C(C)C)[C@@H](C)O [Example 170, N-alpha-[(S)-4-Carboxy-4-(19-carboxynonadecanoylamino)butyryl]-[Glu14,Arg18,Ser21,Ser22,Ser28,Ser29,Asp31,Asp35,Pro37]-pramlintide] ({C20 diacid-γGlu}-KCNTATCATQRLAEFLVRSSSSFGPILSSTDVGSDTP-NH2; disulfide 2-7 (inferred)) | 10.12 | >45 h | > 200 µM | > 200 µM | > 200 µM | > 200 µM | > 200 µM | 188 µM (≈ 808 µg/mL) | > 200 µM | > 200 µM | > 200 µM | 186 µM (≈ 800 µg/mL) | 10.05 | >45 h | >45 h | >45 h | > 200 µM | > 200 µM | > 200 µM |
